Test results as given in US20240409538A1, “SUBSTITUTED TRIAZOLOHETEROARYL COMPOUNDS AS USP1 INHIBITORS AND THE USE THEREOF” (IMPACT THERAPEUTICS (SHANGHAI), INC., priority 2021, published 2024).

What was measured:
[1] = system: BRCA mutant human breast cancer MDA-MB-436 cell line; assay: Growth inhibition of MDA-MB-436 cells, CTG (Celltiter-Glo) method; assay type: cell-based; conditions: MDA-MB-436, 168 h, 7 days incubation, read-out: IC50 (nM), inhibition of proliferation of MDA-MB-436 cells, CTG method
Description: (§1) The cells were cultured in complete medium (DMEM medium+10% FBS+Insulin+glutathione). When the confluence reached about 80%, cells were digested and gently dispensed from the bottom of the dish with a 1 mL pipette. Cell suspension was collected and centrifuged at 500 rpm for 3 min. The supernatant was discarded, and the cell pellet were re-suspended in complete medium. The cells were seeded into a culture dish at an appropriate proportion, and then cultured in a 5% CO2 incubator at 37° C. The assay was carried out when the cells were in optimum condition and the confluence was reached 80%. Cells in the logarithmic growth phase were taken to centrifugate, and the culture supernatant was removed. The cells were resuspended in refresh complete medium and counted. The resuspended cells were seeded at 3000/well in a 96-well plate and incubated at 37° C., 5% CO2 incubator overnight. The compound was prepared as below: 1000× dilution tested compound solution to 40× test compound solution by adding 5 μL 1000× compound solution to 120 μL Medium (25-fold dilution). The solution was mixed by oscillation, 0.1% DMSO was used as the control.
(§2) The next day, the 96-well plate inoculated with cells was taken out from the incubator, and the culture supernatant was removed. Then fresh medium of 195 uL/well and 5 μL/well of 40× test compound solution as mentioned above were added into the 96 well plate, respectively. Finally, the plate was incubated for 7 days in a 37° C. 5% CO2 incubator. The medium containing compound was changed on the fourth day.
CTG Method: After 7 days, 100 μL Celltiter-Glo reagent was added to each well, and then the plate was shake for 2 minutes to fully lysate. Then the plate was incubated at room temperature for 10 minutes, and the chemiluminescence values were read by plate reader.
The inhibitory activity of compounds on cell proliferation was plotted using cell survival rate against the compound concentration as coordinates. Cell inhibition rate %=(Lumcompound−LumDMSO)/(Lummedium−LumDMSO)×100. Lum refers to the chemiluminescence value.
XL Fit software was used to Fit nonlinear s-curve regression to Fit the data to obtain dose-effect curves, from which IC50 values were calculated. Y=Bottom+(Top−Bottom)/(1+10^((Log IC50−X)×slope)), Where Y is the cell inhibition rate, X is the compound concentration, Bottom is the lowest inhibition rate. Top is the highest inhibition rate.
Table 2 summarizes the inhibitory effect data (IC50) of the compounds on the proliferation of human breast cancer cells MDA-MB-436 determined by CTG method.

[2] = system: BRCA mutant human breast cancer MDA-MB-436 cell line; assay: Growth inhibition of MDA-MB-436 cells, CCK-8 method; assay type: cell-based; conditions: MDA-MB-436, 168 h, 7 days incubation, read-out: IC50 (nM), inhibition of proliferation of MDA-MB-436 cells, CCK-8 method
Description: as §1, §2
CCK Method: After 7 days, 20 μL of CCK-8 was added to each well and shaken gently, then was cultured for 4 hours. The plate was shaken for 5 min after incubation, the absorbance values of 450 nm or 650 nm wavelengths were recorded respectively (OD=absorbance value of 450 nm−absorbance value of 650 nm) by using the multifunction readout instrument.
Data were analyzed by software GraphPad Prism 6.0. The inhibitory activity of compounds on cell proliferation was plotted using cell survival rate against the compound concentration as coordinates. Cell survival rate %=(ODcompound−ODbackground)/(ODDMSO−ODbackground)×100. The IC50 value was fitted by the s-shaped dose response curve equation: Y=100/(1+10^(log C−log IC50)), and C was the compound concentration.
Table 3 summarizes the inhibitory effect data (IC50) of the compounds on the proliferation of human breast cancer cells MDA-MB-436 determined by CCK-8 method.

USP1/UAF1 = USP1/UAF1 (Homo sapiens (Human), UniProt O94782); assay: USP1/UAF1 activity, ubiquitin-rhodamine110-glycine (Ub-Rho) assay; assay type: biochemical; conditions: 0.1 nM USP1/UAF1, 100 nM Ub-Rho, 120 minutes; read-out: IC50 (nM), inhibitory effects on USP1/UAF1 activity
Sequence of USP1/UAF1 (O94782 whole entry): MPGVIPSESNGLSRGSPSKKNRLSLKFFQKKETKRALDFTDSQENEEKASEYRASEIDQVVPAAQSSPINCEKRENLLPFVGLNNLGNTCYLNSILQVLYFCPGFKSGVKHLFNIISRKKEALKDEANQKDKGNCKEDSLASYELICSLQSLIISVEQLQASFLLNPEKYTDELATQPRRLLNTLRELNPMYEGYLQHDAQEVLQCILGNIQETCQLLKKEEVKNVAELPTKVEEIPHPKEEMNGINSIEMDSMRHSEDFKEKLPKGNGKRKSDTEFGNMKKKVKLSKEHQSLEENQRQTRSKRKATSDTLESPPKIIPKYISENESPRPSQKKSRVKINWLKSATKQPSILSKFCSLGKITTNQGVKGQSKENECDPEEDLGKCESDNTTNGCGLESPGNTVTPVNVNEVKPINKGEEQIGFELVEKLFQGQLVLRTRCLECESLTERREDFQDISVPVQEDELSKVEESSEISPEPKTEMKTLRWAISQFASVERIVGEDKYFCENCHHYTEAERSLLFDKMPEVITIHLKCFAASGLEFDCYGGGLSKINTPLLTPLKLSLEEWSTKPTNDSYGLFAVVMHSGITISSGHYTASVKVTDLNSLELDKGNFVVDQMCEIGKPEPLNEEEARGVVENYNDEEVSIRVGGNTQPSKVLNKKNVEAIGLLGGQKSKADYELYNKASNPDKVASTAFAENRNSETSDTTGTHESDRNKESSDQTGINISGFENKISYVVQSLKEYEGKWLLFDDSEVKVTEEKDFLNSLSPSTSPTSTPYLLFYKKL
Sequence of USP1/UAF1 (Q8TAF3 whole entry partner): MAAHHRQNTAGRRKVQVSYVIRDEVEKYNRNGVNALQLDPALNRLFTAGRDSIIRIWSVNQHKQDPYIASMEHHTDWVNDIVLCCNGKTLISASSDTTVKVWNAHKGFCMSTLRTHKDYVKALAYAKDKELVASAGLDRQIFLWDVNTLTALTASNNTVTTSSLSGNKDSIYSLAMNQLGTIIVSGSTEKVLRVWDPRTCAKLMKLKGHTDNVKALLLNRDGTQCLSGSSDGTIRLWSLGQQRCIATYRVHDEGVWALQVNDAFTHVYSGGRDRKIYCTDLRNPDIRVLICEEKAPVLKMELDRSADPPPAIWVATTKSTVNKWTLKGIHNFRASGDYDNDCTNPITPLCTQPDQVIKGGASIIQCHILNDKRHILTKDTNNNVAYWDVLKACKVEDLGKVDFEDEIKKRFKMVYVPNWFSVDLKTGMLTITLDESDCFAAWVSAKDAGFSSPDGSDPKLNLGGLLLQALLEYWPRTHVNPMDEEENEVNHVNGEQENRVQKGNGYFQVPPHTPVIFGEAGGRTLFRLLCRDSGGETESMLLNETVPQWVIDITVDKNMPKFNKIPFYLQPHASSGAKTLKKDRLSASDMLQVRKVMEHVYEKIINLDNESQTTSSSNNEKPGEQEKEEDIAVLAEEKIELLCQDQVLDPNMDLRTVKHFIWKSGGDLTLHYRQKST
Description: USP1/UAF1 activity was determined by using ubiquitin-rhodamine110-glycine (Ub-Rho; Boston Biochem) assay. Enzymatic reactions were conducted in an assay buffer (50 mM Tris-HCl, pH 7.8, 0.5 mM EDTA, 100 mM NaCl, 1 mM DTT, 0.01 BSA, and 0.01% Tween-20) that contained 0.1 nM USP1/UAF1. Each individual compound was tested at ten concentrations in the range of 0.0005 to 10 μM. The plates were incubated for 15 min to attain equilibrium, and then the enzymatic reaction was initiated by dispensing 10 μL of Ub-Rho solution (100 nM final concentration). After treating 120 minutes with Ub-Rho solution, the rhodamine fluorescence was acquired using a 480 nm excitation/540 nm emission filter set by using Envision instrument. The inhibition rate of the compound to USP1/UAF1 enzyme activity was calculated according to the following formula.
IC50 value is obtained by fitting the s-shaped dose response curve equation by using XL Fit software. The curve equation is Y=100/(1+10^(log C−log IC50)). C is the compound concentration.

IC50 [1] | IC50 [2] | IC50 (USP1/UAF1) | Structure (SMILES)
57.6 nM | 111 nM |  | CC(C)c1ccccc1-c1nc2c(Cc3ccc(-c4nc(C(F)(F)F)cn4C)cc3)cccn2n1 [Example 3, 2-(2-isopropylphenyl)-8-(4-(1-methyl-4-(trifluoromethyl)-1H-imidazol-2-yl)benzyl)-[1,2,4]triazolo[1,5-a]pyridine]
21.6 nM | 26.4 nM | 30.6 nM | COc1ncnc(C2CC2)c1-c1nc2cccc(Cc3ccc(-c4nc(C(F)(F)F)cn4C)cc3)n2n1 [Example 14, 2-(4-cyclopropyl-6-methoxypyrimidin-5-yl)-5-(4-(1-methyl-4-(trifluoromethyl)-1H-imidazol-2-yl)benzyl)-[1,2,4]triazolo[1,5-a]pyridine]
21.1 nM |  | 19.9 nM | COc1ncnc(C2CC2)c1-c1nc2ccnc(Cc3ccc(-c4nc(C(F)(F)F)cn4C4CC4)cc3)n2n1 [Example 40, 5-(4-(1-cyclopropyl-4-(trifluoromethyl)-1H-imidazol-2-yl)benzyl)-2-(4-cyclopropyl-6-methoxypyrimidin-5-yl)-[1,2,4]triazolo[1,5-c]pyrimidine]
55.3 nM |  | 34.2 nM | COc1ncnc(C2CC2)c1-c1nc2ccnc(Cc3ccc(-c4nc(C(F)(F)F)cn4C)c(F)c3)n2n1 [Example 41, 2-(4-cyclopropyl-6-methoxypyrimidin-5-yl)-5-(3-fluoro-4-(1-methyl-4-(trifluoromethyl)-1H-imidazol-2-yl)benzyl)-[1,2,4]triazolo[1,5-c]pyrimidine]
